Assay results reported in paper PMC9897792, “Discovery of novel 2-(4-(benzyloxy)-5-(hydroxyl) phenyl) benzothiazole derivatives as multifunctional MAO-B inhibitors for the treatment of Parkinson’s disease” (Journal of Enzyme Inhibition and Medicinal Chemistry, 2023).
Where “and” joins values, the source holds several entries; their conditions need not be identical. Equal entries are not always repeated. Where two headings read alike, the source gives them in different places.

Experiments:
MAO-A = biological target: T1, MAO-A (Homo sapiens, UniProt P21397); experiment: MAO-A inhibition, kynuramine method; assay type: biochemical; conditions: for inhibition at 10 µM: read-out: %Inhibition MAO-A
T1 sequence (P21397 1-527): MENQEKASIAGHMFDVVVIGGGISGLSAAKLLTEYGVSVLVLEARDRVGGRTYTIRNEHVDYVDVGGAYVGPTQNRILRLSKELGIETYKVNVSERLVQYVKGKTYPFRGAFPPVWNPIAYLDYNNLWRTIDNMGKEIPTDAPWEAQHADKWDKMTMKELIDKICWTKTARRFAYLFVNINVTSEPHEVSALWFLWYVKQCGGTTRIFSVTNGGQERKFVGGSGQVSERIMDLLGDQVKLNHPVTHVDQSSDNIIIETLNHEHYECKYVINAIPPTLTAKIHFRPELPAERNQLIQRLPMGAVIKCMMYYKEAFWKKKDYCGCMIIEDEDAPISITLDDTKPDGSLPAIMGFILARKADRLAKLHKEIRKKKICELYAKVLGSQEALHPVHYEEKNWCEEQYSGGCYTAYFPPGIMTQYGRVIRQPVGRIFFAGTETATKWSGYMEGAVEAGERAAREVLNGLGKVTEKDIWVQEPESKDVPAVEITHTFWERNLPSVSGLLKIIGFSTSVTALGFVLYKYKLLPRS

MAO-B [1] = biological target: T2, MAO-B (Homo sapiens, UniProt P27338); experiment: MAO-B inhibition, kynuramine method; assay type: biochemical
T2 sequence (P27338 1-520): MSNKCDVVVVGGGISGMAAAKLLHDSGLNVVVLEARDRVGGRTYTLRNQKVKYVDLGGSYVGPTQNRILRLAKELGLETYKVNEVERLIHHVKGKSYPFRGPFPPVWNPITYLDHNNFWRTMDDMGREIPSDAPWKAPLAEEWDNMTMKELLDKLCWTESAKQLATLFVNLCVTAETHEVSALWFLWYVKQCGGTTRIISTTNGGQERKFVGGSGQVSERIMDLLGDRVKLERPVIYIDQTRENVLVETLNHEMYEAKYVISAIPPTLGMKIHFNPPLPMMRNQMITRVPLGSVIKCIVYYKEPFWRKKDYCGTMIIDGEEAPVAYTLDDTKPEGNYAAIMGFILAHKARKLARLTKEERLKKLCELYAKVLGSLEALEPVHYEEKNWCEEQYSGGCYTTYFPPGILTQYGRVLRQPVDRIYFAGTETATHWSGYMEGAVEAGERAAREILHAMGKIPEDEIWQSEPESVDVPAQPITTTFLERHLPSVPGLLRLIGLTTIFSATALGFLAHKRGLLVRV

[2] = Oxygen radical absorbance capacity assay with fluorescein (ORAC-FL); conditions: Trolox as standard
Method: Oxygen radical absorbance capacity assay which used fluorescein (ORAC-FL) was performed to measure the antioxidant activities of 2-(4-(benzyloxy)-5-(hydroxyl) phenyl) benzothiazole derivatives. […] It reflected that introduction of alkyl substituents on benzyloxy ring was more beneficial for the improvement of in vitro antioxidant activity. However, the position and number of substituents seem to have little influence on the antioxidative activities.
Test compounds solution (20 µL, 10 µM) and fluorescein solution (120 µL, 250 nM) were added to a black 96-wells plate in order. The mixture was incubated for 15 min at 37 °C. Then, AAPH solution (60 µL, 40 mM) was added through an automatic sampler. The fluorescence was recorded with excitation and emission wavelengths at 485 and 535 nm on the multifunctional enzyme marker (Thermo Scientific), and the area under the curve (AUC) was calculated automatically. Trolox was used as a reference, and the antioxidant activities of the compounds were expressed as Trolox equivalent. The test compound solution was replaced with PBS (20 µL) in blank well. The antioxidant activities of the test compounds were calculated by the formula: [(AUCsample − AUCblank)/(AUCtrolox − AUCblank)] × [(Trolox concentration/test sample concentration)].

[3] = PAMPA-BBB literature values ref 1 (Di et al., Eur. J. Med. Chem. 2003, 38, 223); cited from earlier work
MAO-B [4] = biological target: T2, MAO-B; experiment: Reversibility study of MAO-B inhibition by dialysis method; assay type: biochemical; conditions: for MAO-B inhibitory mode: classified by MAO-B catalytic activity in dialysis group; for MAO-B catalytic activity, undialysis group / MAO-B catalytic activity, dialysis group: test compound 4 × IC50; for MAO-B catalytic activity, undialysis group: 4 °C for 24 h without dialysis; for MAO-B catalytic activity, dialysis group: dialysis 24 h
Method: The mixture was incubated at 37 °C for 30 min and transferred to dialysis bag (MWCO: 10 000, flattening width: 24 mm, length: 8–10 cm). Then, this dialysis bag was placed in 200 ml PBS for 24 h, and the outer PBS was replaced with fresh at 3 and 7 h, respectively. As for the undialysis group, the mixture was placed at 4 °C for 24 h. After dialysis, the mixtures (40 µL) in the dialysis bag were taken out to measure the catalytic activity, and the test method was similar with the inhibition experiment of MAOs. […] The test compound solution was replaced with PBS buffer at the same volume in the blank group.

[5] = at the concentration of 10.0 μM, n.a. = no active, percent inhibition <5.0%

Compound | inhibition at 10 µM (MAO-A; [5]) [%] | IC50 (MAO-B [1]) [nM] | ORAC [2] | also measured
Oc1cc(OCc2ccccc2)ccc1-c1nc2ccccc2s1 [3a, 2-(Benzo[d]thiazol-2-yl)-5-(benzyloxy)phenol] | 24.83 ± 0.11 | 3930 ± 259 | 2.13 ± 0.05 Trolox equivalents | 
Oc1cc(OCc2ccccc2F)ccc1-c1nc2ccccc2s1 [3b, 2-(Benzo[d]thiazol-2-yl)-5-((2-fluorobenzyl)oxy)phenol] | 14.25 ± 0.07 | 1670 ± 146 | 2.32 ± 0.02 Trolox equivalents | 
Oc1cc(OCc2ccccc2Cl)ccc1-c1nc2ccccc2s1 [3c, 2-(Benzo[d]thiazol-2-yl)-5-((2-chlorobenzyl)oxy)phenol] | 19.58 ± 0.06 | 2900 ± 31 | 2.26 ± 0.09 Trolox equivalents | 
Oc1cc(OCc2cccc(F)c2)ccc1-c1nc2ccccc2s1 [3d, 2-(Benzo[d]thiazol-2-yl)-5-((3-fluorobenzyl)oxy)phenol] | 18.41 ± 0.05 | 526 ± 24 | 2.24 ± 0.10 Trolox equivalents | 
Oc1cc(OCc2cccc(Cl)c2)ccc1-c1nc2ccccc2s1 [3e, 2-(Benzo[d]thiazol-2-yl)-5-((3-chlorobenzyl)oxy)phenol] | 31.6 ± 0.28 | 1050 ± 83 | 2.31 ± 0.07 Trolox equivalents | 
Oc1cc(OCc2cccc(C(F)(F)F)c2)ccc1-c1nc2ccccc2s1 [3f, 2-(Benzo[d]thiazol-2-yl)-5-((3-(trifluoromethyl)benzyl)oxy)phenol] |  | 951 ± 62 | 2.25 ± 0.07 Trolox equivalents | 
COc1cccc(COc2ccc(-c3nc4ccccc4s3)c(O)c2)c1 [3g, 2-(Benzo[d]thiazol-2-yl)-5-((3-methoxybenzyl)oxy)phenol] |  | 1520 ± 97 | 2.30 ± 0.04 Trolox equivalents | 
Oc1cc(OCc2ccc(Cl)cc2)ccc1-c1nc2ccccc2s1 [3i, 2-(Benzo[d]thiazol-2-yl)-5-((4-chlorobenzyl)oxy)phenol] | 47.14 ± 0.21 | 314 ± 10 | 2.23 ± 0.06 Trolox equivalents | 
Cc1ccc(COc2ccc(-c3nc4ccccc4s3)c(O)c2)cc1 [3j, 2-(Benzo[d]thiazol-2-yl)-5-((4-methylbenzyl)oxy)phenol] | 34.32 ± 0.09 | 1940 ± 78 | 2.39 ± 0.14 Trolox equivalents | 
CC(C)(C)c1ccc(COc2ccc(-c3nc4ccccc4s3)c(O)c2)cc1 [3k, 2-(Benzo[d]thiazol-2-yl)-5-((4-(tert-butyl)benzyl)oxy)phenol] |  | 3407 ± 32 | 2.48 Trolox equivalents and 2.48 ± 0.13 Trolox equivalents | 
O=[N+]([O-])c1ccc(COc2ccc(-c3nc4ccccc4s3)c(O)c2)cc1 [3l, 2-(Benzo[d]thiazol-2-yl)-5-((4-nitrobenzyl)oxy)phenol] | 25.16 ± 0.13 | 784 ± 28 | 2.14 ± 0.06 Trolox equivalents | 
Oc1cc(OCc2ccc(F)c(F)c2)ccc1-c1nc2ccccc2s1 [3m, 2-(Benzo[d]thiazol-2-yl)-5-((3,4-difluorobenzyl)oxy)phenol] | 47.52 ± 0.36 | 423 ± 9 | 2.24 ± 0.11 Trolox equivalents | 
Oc1cc(OCc2ccc(Cl)c(Cl)c2)ccc1-c1nc2ccccc2s1 [3n, 2-(Benzo[d]thiazol-2-yl)-5-((3,4-dichlorobenzyl)oxy)phenol] |  | 970 ± 11 | 2.21 ± 0.09 Trolox equivalents | IC50 (MAO-A): 9800 ± 190 nM
Oc1cc(OCc2ccc(F)c(Cl)c2)ccc1-c1nc2ccccc2s1 [3o, 2-(Benzo[d]thiazol-2-yl)-5-((3-chloro-4-fluorobenzyl)oxy)phenol] | 49.9 ± 0.53 | 521 ± 7 | 2.27 ± 0.05 Trolox equivalents | 
O=C1Nc2ccc(Cl)cc2C(c2ccccc2)=NC1O (centres unmarked) [Oxazepam] |  |  |  | Pe (Bibl) [3]: 10 ×10⁻⁶ cm/s
CN1C(C(=O)Nc2ccccn2)=C(O)c2ccccc2S1(=O)=O [Piroxicam] |  |  |  | Pe (Bibl) [3]: 2.5 ×10⁻⁶ cm/s
C#CCN[C@@H]1CCc2ccccc21 [Rasagiline] |  |  |  | MAO-B inhibitory mode (MAO-B [4]): irreversible (irreversible inhibition: MAO-B catalytic activity ≤ 20%); MAO-B catalytic activity, undialysis group (MAO-B [4]): 2.7%; MAO-B catalytic activity, dialysis group (MAO-B [4]): 4.2%
C[C@H](NCc1ccc(OCc2cccc(F)c2)cc1)C(N)=O [Safinamide] |  |  | 1.12 ± 0.01 Trolox equivalents | inhibition at 10 µM (MAO-A): 24.9 ± 0.04%; MAO-B inhibitory mode (MAO-B [4]): reversible (reversible inhibition: MAO-B catalytic activity ≥ 80%); MAO-B catalytic activity, undialysis group (MAO-B [4]): 39.3%; MAO-B catalytic activity, dialysis group (MAO-B [4]): 93.0%
Cn1c(=O)c2[nH]cnc2n(C)c1=O [Theophylline] |  |  |  | Pe (Bibl) [3]: 0.12 ×10⁻⁶ cm/s
